Patent US20250388605A1, “HETEROBIFUNCTIONAL COMPOUNDS AND METHODS OF TREATING DISEASE” (Halda Therapeutics OpCo, Inc., priority 2022, published 2025)

Columns and labels:
[1] = target: T1, progesterone receptor ligand binding domain (GST-tagged PR LBD) (Homo sapiens, UniProt P06401); experiment: FP Assay for Binding Affinity to Progesterone Receptor (PolarScreen Progesterone Receptor Competitor Assay Kit); settings: fluorescence polarization, Fluormone tracer, 2 hours at room temperature
T1 construct: purchased Life Technologies A15905 or a15906
T1 sequence (P06401 679-913 limits assumed): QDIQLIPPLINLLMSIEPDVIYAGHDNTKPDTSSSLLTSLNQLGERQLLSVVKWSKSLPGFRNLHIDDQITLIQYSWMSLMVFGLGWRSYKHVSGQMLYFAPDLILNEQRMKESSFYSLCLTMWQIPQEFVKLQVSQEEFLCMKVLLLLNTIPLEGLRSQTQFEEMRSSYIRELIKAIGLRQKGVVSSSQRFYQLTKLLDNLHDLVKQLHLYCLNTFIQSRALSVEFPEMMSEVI
Procedure: Exemplary compounds were tested for ability to bind to the progesterone receptor ligand binding domain (LBD).
Compounds were tested using the PolarScreen™ Progesterone Receptor Competitor Assay Kit (Life Technologies Cat #A15905 or a15906), as per the manufacturer's instructions. Briefly, GST-tagged PR LBD, Fluormone tracer, and compound were mixed and incubated for 2 hours at room temperature in the dark. Following incubation, the plates were spun at 3000×g for 30 seconds, then sealed with an optical adhesive cover, and fluorescence polarization was measured using appropriate excitation and emission filters with an EnVision Plate Reader (Perkin Elmer). Compound concentration vs. mP value were plotted in Prism (GraphPad). A four-parameter non-linear regression curve fit was applied to dose-response data to determine the half-maximal inhibitory concentration (IC50) for each test compound.

[2] = test system: T-Rex 293 cell line SC cells having increased expression of progesterone receptor isoform B protein; experiment: Cellular growth inhibition assay, T-Rex 293 SC cells exposed to doxycycline (increased progesterone receptor isoform B expression), CellTiter-Glo; type: cell-based; settings: T-Rex 293 SC cells with 10 ng/mL doxycycline (increased PR isoform B), 72 hours
Procedure: The SC cells were seeded on poly-D-lysine coated, black clear-bottom 384-well plates at 2500/well, in 25 μL Phenol Red Free Dulbecco's Modified Eagle Medium (DMEM) supplemented with 10% w/w charcoal-dextran treated fetal bovine serum (FBS) and 1% w/w pen-strep, with or without 10 ng/mL doxycycline. Pen-Strep is a commercially available mixture of penicillin G and streptomycin, which is used in mammalian cell culture media to prevent bacterial contamination. Phenol Red Free Dulbecco's Modified Eagle Medium (DMEM) supplemented with 10% w/w charcoal-dextran treated fetal bovine serum (FBS) and 1% w/w pen-strep, with or without 10 ng/mL doxycycline is herein referred to as Treatment Medium. Following seeding of cells in the plates, the plates were spun at 300×g for 30 seconds, then equilibrated to room temperature for 30 minutes, and then deposited in a humidified tissue culture incubator maintained at 37° C. with 5% CO2.
At 24 hours after seeding of the cells, dilutions of test compound were prepared in DMSO and dissolved in Treatment Medium, to achieve a final DMSO concentration of 0.5% w/w, thereby providing the Test Compound Solution. A 25 μL aliquot of the Test Compound Solution was added to cells in the well plates. An equal volume of a solution containing DMSO and Treatment Medium was used as a negative control. Following treatment of cells with Test Compound Solution or said equal volume of a solution containing DMSO and Treatment Medium, the plates were spun at 300×g for 30 seconds, and then left in an incubator for 72 hours.
At the end of the treatment duration, cell viability was quantified with CellTiter-Glo 2.0 reagent (Promega Cat #G9243). For this purpose, plates were equilibrated to room temperature for 30 minutes, and then 25 μL of CellTiter-Glo 2.0 reagent was added to cells in the plate wells. Plates were then agitated on a shaker for two minutes at 500 rpm and subsequently incubated at room temperature for 10 minutes. Following incubation, the plates were spun at 3000×g for 30 seconds, then sealed with an optical adhesive cover, and luminescence readings were measured with an EnVision Plate Reader (Perkin Elmer).
Data was normalized using zero luminescence for baseline. A four-parameter non-linear regression curve fit was applied to dose-response data in GraphPad Prism data analysis software to determine the half-maximal growth inhibitory concentration (GI50) for each test compound.

Row | IC50 [1] | SMILES | GI50 [2]
1 | > 2500 nM | CCS(=O)(=O)Nc1ccc(Oc2cccc(N3CC(OC4CCN(c5ncc(C(=O)N[C@H]6C(C)(C)[C@H](Oc7ccc(C#N)c(Cl)c7)C6(C)C)cn5)CC4)C3)c2)c(-c2cn(C)c(=O)c3[nH]ccc23)c1 [Compound I-80] | 
2 |  | CCS(=O)(=O)Nc1ccc(Oc2ccc(F)c(OCCOC3CCN(c4ncc(C(=O)N[C@H]5C(C)(C)[C@H](Oc6ccc(C#N)c(Cl)c6)C5(C)C)cn4)CC3)c2F)c(-c2cn(C)c(=O)c3[nH]ccc23)c1 [Compound I-65] | < 500 nM
3 |  | Cn1cc(-c2cc(C(C)(C)O)ccc2Oc2cccc(N3CC(CC4CCN(c5ncc(C(=O)N[C@H]6C(C)(C)[C@H](Oc7ccc(C#N)c(Cl)c7)C6(C)C)cn5)CC4)C3)c2F)c2cc[nH]c2c1=O [Compound I-196] | < 500 nM
4 |  | CCS(=O)(=O)Nc1ccc(Oc2cccc(OCCOCCOCCOC3CCN(c4ncc(C(=O)N[C@H]5C(C)(C)[C@H](Oc6ccc(C#N)c(Cl)c6)C5(C)C)cn4)CC3)c2)c(-c2cn(C)c(=O)c3[nH]ccc23)c1 [Compound I-7] | < 500 nM
5 | 50 to 500 nM | Cn1cc(-c2cc(C(C)(C)O)ccc2Oc2ccc(OCCN3CCN(c4ncc(C(=O)N[C@H]5C(C)(C)[C@H](Oc6ccc(C#N)c(Cl)c6)C5(C)C)cn4)CC3)cc2)c2cc[nH]c2c1=O [Compound I-204] | < 500 nM
6 | 50 to 500 nM | CN(C1CN(c2ccc(Oc3ccc(C(C)(C)O)cc3-c3cn(C)c(=O)c4[nH]ccc34)cc2)C1)C1CN(c2ncc(C(=O)N[C@H]3C(C)(C)[C@H](Oc4ccc(C#N)c(Cl)c4)C3(C)C)cn2)C1 [Compound I-238] | < 500 nM
7 | 50 to 500 nM | CN(CC1CCN(c2ncc(C(=O)N[C@H]3C(C)(C)[C@H](Oc4ccc(C#N)c(Cl)c4)C3(C)C)cn2)CC1)C1(c2ccc(Oc3ccc(C(C)(C)O)cc3-c3cn(C)c(=O)c4[nH]ccc34)cc2)COC1 [Compound I-255] | < 500 nM
8 | > 2500 nM | CCS(=O)(=O)Nc1ccc(Oc2cccc(OC3CC(C4CCN(c5ncc(C(=O)N[C@H]6C(C)(C)[C@H](Oc7ccc(C#N)c(Cl)c7)C6(C)C)cn5)CC4)C3)c2)c(-c2cn(C)c(=O)c3[nH]ccc23)c1 (stereo partly shown) [Compound I-104] | < 500 nM
9 | 50 to 500 nM | CCS(=O)(=O)c1ccc(Oc2ccc(OCC3CCN(c4ncc5c(n4)CN([C@H]4C(C)(C)[C@H](Cc6ccc(C#N)c(Cl)c6)C4(C)C)C5=O)CC3)cc2)c(-c2cn(C)c(=O)c3[nH]ccc23)c1 [Compound I-220] | < 500 nM
10 | < 50 nM | CC(C)N(CC1CCN(c2ncc(C(=O)N[C@H]3C(C)(C)[C@H](Oc4ccc(C#N)c(Cl)c4)C3(C)C)cn2)CC1)[C@H]1C[C@H](Oc2cccc(Oc3ccc(C(C)(C)O)cc3-c3cn(C)c(=O)c4[nH]ccc34)c2F)C1 [Compound I-214] | 
11 | > 2500 nM | CCS(=O)(=O)Nc1ccc(Oc2cccc(OC3CCC4(CC3)CCN(c3ncc(C(=O)N[C@H]5C(C)(C)[C@H](Oc6ccc(C#N)c(Cl)c6)C5(C)C)cn3)CC4)c2)c(-c2cn(C)c(=O)c3[nH]ccc23)c1 [Compound I-45] | < 500 nM
12 | 50 to 500 nM | CC(C)N(C1CCN(c2ncc(C(=O)N[C@H]3C(C)(C)[C@H](Oc4ccc(C#N)c(Cl)c4)C3(C)C)cn2)CC1)C1CN(c2cccc(Oc3ccc(C(C)(C)O)cc3-c3cn(C)c(=O)c4[nH]ccc34)c2F)C1 [Compound I-221] | < 500 nM
13 | 500 to 2500 nM | CCS(=O)(=O)Nc1ccc(Oc2cccc(N3CC4(CN(CC5CCN(c6ncc(C(=O)N[C@H]7C(C)(C)[C@H](Oc8ccc(C#N)c(Cl)c8)C7(C)C)cn6)CC5)C4)C3)c2)c(-c2cn(C)c(=O)c3[nH]ccc23)c1 [Compound I-35, N-((1r, 3r)-3-(3-chloro-4-cyanophenoxy)-2,2,4,4-tetramethylcyclobutyl)-2-(4-((6-(3-(4-(ethylsulfonamido)-2-(6-methyl-7-oxo-6,7-dihydro-1H-pyrrolo[2,3-c]pyridin-4-yl)phenoxy)phenyl)-2,6-diazaspiro[3.3]heptan-2-yl)methyl)piperidin-1-yl)pyrimidine-5-carboxamide] | < 500 nM
14 | 50 to 500 nM | Cn1cc(-c2cc(C(C)(C)O)ccc2Oc2ccc(N3CC(OC4CCN(c5ncc(C(=O)N[C@H]6C(C)(C)[C@H](Oc7ccc(C#N)c(Cl)c7)C6(C)C)cn5)CC4)C3)cc2)c2cc[nH]c2c1=O [Compound I-219] | < 500 nM
15 | 50 to 500 nM | Cn1cc(-c2cc(C(C)(C)O)ccc2Oc2ccc(N3CC(CC4CN(c5ncc(C(=O)N[C@H]6C(C)(C)[C@H](Oc7ccc(C#N)c(Cl)c7)C6(C)C)cn5)C4)C3)cc2)c2cc[nH]c2c1=O [Compound I-280] | < 500 nM
16 | 50 to 500 nM | Cn1cc(-c2cc(C(C)(C)O)ccc2Oc2ccc(CCCC3CC4(C3)CN(c3ncc(C(=O)N[C@H]5C(C)(C)[C@H](Oc6ccc(C#N)c(Cl)c6)C5(C)C)cn3)C4)cc2)c2cc[nH]c2c1=O [Compound I-268] | < 500 nM
17 | > 2500 nM | Cn1cc(-c2cc(C(C)(C)O)ccc2Oc2ccc(CC3CCN(c4ncc(C(=O)N[C@H]5C(C)(C)[C@H](Oc6ccc(C#N)c(Cl)c6)C5(C)C)cn4)CC3)cc2)c2cc[nH]c2c1=O [Compound I-201] | < 500 nM
18 |  | CN(c1ccc(Oc2ccc(C(C)(C)O)cc2-c2cn(C)c(=O)c3[nH]ccc23)cc1)C1CCN(c2ncc(C(=O)N[C@H]3C(C)(C)[C@H](Oc4ccc(C#N)c(Cl)c4)C3(C)C)cn2)CC1 [Compound I-197] | < 500 nM
19 |  | Cc1ccc(CCCOC2CCN(c3ncc(C(=O)N[C@H]4C(C)(C)[C@H](Oc5ccc(C#N)c(Cl)c5)C4(C)C)cn3)CC2)c(C)c1Oc1ccc(C(C)(C)O)cc1-c1cn(C)c(=O)c2[nH]ccc12 [Compound I-195] | < 500 nM
20 | 50 to 500 nM | Cn1cc(-c2cc(C(C)(C)O)ccc2Oc2ccc(N3CC(CN4CC5CC4CN5c4ncc(C(=O)N[C@H]5C(C)(C)[C@H](Oc6ccc(C#N)c(Cl)c6)C5(C)C)cn4)C3)cc2)c2cc[nH]c2c1=O (stereo partly shown) [Compound I-228] | < 500 nM
21 | 50 to 500 nM | CN(C1CCN(c2ncc(C(=O)N[C@H]3C(C)(C)[C@H](Oc4ccc(C#N)c(Cl)c4)C3(C)C)cn2)CC1)C1CN(c2ccc(Oc3ccc(C(C)(C)O)cc3-c3cn(C)c(=O)c4[nH]ccc34)cc2)C1 [Compound I-208] | < 500 nM
22 |  | Cn1cc(-c2cc(C(C)(C)O)ccc2Oc2cccc(N3CC(N4CCN(c5ncc(C(=O)N[C@H]6C(C)(C)[C@H](Oc7ccc(C#N)c(Cl)c7)C6(C)C)cn5)CC4)C3)c2F)c2cc[nH]c2c1=O [Compound I-92, N-((1r, 3r)-3-(3-chloro-4-cyanophenoxy)-2,2,4,4-tetramethylcyclobutyl)-2-(4-(1-(2-fluoro-3-(4-(2-hydroxypropan-2-yl)-2-(6-methyl-7-oxo-6,7-dihydro-1H-pyrrolo[2,3-c]pyridin-4-yl)phenoxy)phenyl)azetidin-3-yl)piperazin-1-yl)pyrimidine-5-carboxamide] | < 500 nM
23 |  | Cn1cc(-c2cc(C(C)(C)O)ccc2Oc2cccc(N3CC(OC4CCN(c5ncc(C(=O)N[C@H]6C(C)(C)[C@H](Oc7ccc(C#N)c(Cl)c7)C6(C)C)cn5)CC4)C3)c2F)c2cc[nH]c2c1=O [Compound I-190] | < 500 nM
24 | > 2500 nM | Cn1cc(-c2cc(C(C)(C)O)ccc2Oc2ccc(OCC3CCN(c4ncc(C(=O)N[C@H]5C(C)(C)[C@H](Oc6ccc(C#N)c(Cl)c6)C5(C)C)cn4)CC3)cc2)c2cc[nH]c2c1=O [Compound I-202] | < 500 nM
25 |  | CCS(=O)(=O)Nc1ccc(Oc2cccc(OCCOC3CCN(c4ncc(C(=O)N[C@H]5C(C)(C)[C@H](Oc6ccc(C#N)c(Cl)c6)C5(C)C)cn4)CC3)c2)c(-c2cn(C)c(=O)c3[nH]ccc23)c1 [Compound I-6] | < 500 nM
